Source: patent publication US10189853B2, “Conformationally restricted 4-substituted-2,6-dimethylfuro[2,3-d]pyrimidines as anti-tumor agents” (DUQUESNE UNIVERSITY OF THE HOLY SPIRIT, priority 2014, dated 2019)
One block for each compound: values may come before it.

Assays:
UO-31 = assay: NCI 60 cell line panel; assay type: cell-based; conditions: Homo sapiens, Renal Cancer
HOP-62 = assay: NCI 60 cell line panel; assay type: cell-based; conditions: Homo sapiens, NSCLC
EGFR = EGFR (Homo sapiens (Human), UniProt P00533); assay: EGFR kinase inhibition, phosphotyrosine ELISA cytoblot; assay type: cell-based; conditions: A431 cells
Sequence of EGFR (P00533 25-1210): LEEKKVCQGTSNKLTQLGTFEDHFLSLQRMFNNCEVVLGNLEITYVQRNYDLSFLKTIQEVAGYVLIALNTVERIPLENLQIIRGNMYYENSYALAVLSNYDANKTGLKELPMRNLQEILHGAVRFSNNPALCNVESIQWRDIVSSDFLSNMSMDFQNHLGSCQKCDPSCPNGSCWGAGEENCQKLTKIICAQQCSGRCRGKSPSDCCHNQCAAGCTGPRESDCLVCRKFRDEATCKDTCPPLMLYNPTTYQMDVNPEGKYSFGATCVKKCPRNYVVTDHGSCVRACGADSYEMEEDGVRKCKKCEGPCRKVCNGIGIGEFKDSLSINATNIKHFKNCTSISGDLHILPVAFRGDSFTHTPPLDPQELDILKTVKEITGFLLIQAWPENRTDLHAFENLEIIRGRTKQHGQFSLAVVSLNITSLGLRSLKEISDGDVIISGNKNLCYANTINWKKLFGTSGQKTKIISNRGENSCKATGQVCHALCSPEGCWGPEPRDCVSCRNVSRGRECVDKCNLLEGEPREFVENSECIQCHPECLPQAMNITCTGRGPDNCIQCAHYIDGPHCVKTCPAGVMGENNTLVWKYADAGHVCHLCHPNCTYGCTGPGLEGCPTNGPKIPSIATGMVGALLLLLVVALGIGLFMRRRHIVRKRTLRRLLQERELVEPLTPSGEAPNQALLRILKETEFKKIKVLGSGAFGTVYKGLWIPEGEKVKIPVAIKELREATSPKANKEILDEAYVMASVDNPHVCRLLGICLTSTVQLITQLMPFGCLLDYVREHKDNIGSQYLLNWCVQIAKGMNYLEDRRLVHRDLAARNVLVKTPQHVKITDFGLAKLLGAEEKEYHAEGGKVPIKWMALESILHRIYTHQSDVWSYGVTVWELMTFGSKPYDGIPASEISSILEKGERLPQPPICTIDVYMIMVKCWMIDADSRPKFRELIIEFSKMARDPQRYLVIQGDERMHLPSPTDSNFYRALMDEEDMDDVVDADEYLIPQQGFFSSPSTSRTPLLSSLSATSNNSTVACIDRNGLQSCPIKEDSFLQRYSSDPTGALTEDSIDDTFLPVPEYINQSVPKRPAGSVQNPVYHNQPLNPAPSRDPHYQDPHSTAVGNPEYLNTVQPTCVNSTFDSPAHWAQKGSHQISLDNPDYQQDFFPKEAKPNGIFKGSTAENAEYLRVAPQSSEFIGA

SN 12C = assay: NCI 60 cell line panel; assay type: cell-based; conditions: Homo sapiens, SN12C, Renal Cancer
NCI/ADR-RES = assay: NCI 60 cell line panel; assay type: cell-based; conditions: Homo sapiens, Ovarian cancer
SF-295 = assay: NCI 60 cell line panel; assay type: cell-based; conditions: Homo sapiens, CNS Cancer
MDA-MB-435 = assay: NCI 60 cell line panel; assay type: cell-based; conditions: Homo sapiens, Melanoma
786-0 = assay: NCI 60 cell line panel; assay type: cell-based; conditions: Homo sapiens
HeLa cells = assay: Antiproliferative SRB assay; assay type: cell-based; conditions: Homo sapiens, HeLa, 48 h, read-out: IC50 ± SD in HeLa
KM12 = assay: NCI 60 cell line panel; assay type: cell-based; conditions: Homo sapiens, Colon Cancer
MCF7 = assay: NCI 60 cell line panel; assay type: cell-based; conditions: Homo sapiens, Breast Cancer
OVCAR-4 = assay: NCI 60 cell line panel; assay type: cell-based; conditions: Homo sapiens, Ovarian cancer
DU-145 = assay: NCI 60 cell line panel; assay type: cell-based; conditions: Homo sapiens, Prostate Cancer
SF-268 = assay: NCI 60 cell line panel; assay type: cell-based; conditions: Homo sapiens, CNS Cancer
OVCAR-3 = assay: NCI 60 cell line panel; assay type: cell-based; conditions: Homo sapiens, Ovarian cancer
OVCAR-8 = assay: NCI 60 cell line panel; assay type: cell-based; conditions: Homo sapiens, Ovarian cancer
ACHN = assay: NCI 60 cell line panel; assay type: cell-based; conditions: Homo sapiens, Renal Cancer
HT29 = assay: NCI 60 cell line panel; assay type: cell-based; conditions: Homo sapiens, HT-29, Colon Cancer
HOP-92 = assay: NCI 60 cell line panel; assay type: cell-based; conditions: Homo sapiens, NSCLC
[1] = tested on: cellular microtubules in A-10 cells; assay: Microtubule depolymerization, indirect immunofluorescence; assay type: cell-based; conditions: for effect on cellular microtubules: in words
MOLT-4 = assay: NCI 60 cell line panel; assay type: cell-based; conditions: Homo sapiens, Leukemia
SK-OV-3 = assay: NCI 60 cell line panel; assay type: cell-based; conditions: Homo sapiens, Ovarian cancer
SK-MEL-5 = assay: NCI 60 cell line panel; assay type: cell-based; conditions: Homo sapiens, Melanoma
HS 578T = assay: NCI 60 cell line panel; assay type: cell-based; conditions: Homo sapiens, Breast Cancer
VEGFR-2 = VEGFR-2 (Homo sapiens (Human), UniProt P35968); assay: VEGFR-2 kinase inhibition, phosphotyrosine ELISA cytoblot; assay type: cell-based; conditions: for IC50: U251 cells, phosphotyrosine ELISA
Sequence of VEGFR-2 (P35968 20-1356): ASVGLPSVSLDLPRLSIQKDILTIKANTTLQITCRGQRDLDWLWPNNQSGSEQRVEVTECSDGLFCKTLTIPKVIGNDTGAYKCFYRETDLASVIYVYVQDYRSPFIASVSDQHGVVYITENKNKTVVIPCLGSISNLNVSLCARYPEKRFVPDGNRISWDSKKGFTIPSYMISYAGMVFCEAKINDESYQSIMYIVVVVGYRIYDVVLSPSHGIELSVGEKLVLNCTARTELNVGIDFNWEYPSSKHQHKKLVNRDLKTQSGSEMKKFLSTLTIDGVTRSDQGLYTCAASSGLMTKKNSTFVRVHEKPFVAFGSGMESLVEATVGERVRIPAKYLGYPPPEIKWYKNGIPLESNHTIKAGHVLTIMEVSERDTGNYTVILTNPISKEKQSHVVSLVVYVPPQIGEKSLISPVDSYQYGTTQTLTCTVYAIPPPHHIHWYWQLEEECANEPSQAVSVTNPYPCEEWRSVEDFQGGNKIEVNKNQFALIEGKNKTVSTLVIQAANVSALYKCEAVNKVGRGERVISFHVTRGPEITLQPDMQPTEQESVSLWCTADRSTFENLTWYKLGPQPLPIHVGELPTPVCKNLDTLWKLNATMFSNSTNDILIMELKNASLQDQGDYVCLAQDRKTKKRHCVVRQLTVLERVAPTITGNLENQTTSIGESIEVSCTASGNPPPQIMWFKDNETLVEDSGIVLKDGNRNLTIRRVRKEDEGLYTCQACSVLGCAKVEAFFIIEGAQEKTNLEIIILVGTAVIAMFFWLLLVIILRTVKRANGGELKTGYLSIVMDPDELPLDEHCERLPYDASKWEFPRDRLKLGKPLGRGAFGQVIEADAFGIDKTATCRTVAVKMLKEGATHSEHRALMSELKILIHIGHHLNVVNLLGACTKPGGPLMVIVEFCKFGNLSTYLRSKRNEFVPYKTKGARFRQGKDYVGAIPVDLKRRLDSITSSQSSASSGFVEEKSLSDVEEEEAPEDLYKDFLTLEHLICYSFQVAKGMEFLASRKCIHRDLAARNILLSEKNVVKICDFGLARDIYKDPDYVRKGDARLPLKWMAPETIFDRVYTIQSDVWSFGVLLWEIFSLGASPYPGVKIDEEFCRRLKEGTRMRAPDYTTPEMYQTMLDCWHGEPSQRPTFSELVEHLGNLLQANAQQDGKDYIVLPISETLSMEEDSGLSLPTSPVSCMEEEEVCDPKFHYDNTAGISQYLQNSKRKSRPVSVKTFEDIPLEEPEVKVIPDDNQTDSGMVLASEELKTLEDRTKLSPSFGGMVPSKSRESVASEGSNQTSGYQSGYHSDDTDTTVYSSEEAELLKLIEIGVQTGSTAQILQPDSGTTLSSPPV

PC-3 = assay: NCI 60 cell line panel; assay type: cell-based; conditions: Homo sapiens, Prostate Cancer
COLO 205 = assay: NCI 60 cell line panel; assay type: cell-based; conditions: Homo sapiens, Colon Cancer
A431 cancer cells = assay: A431 cytotoxicity (cell proliferation); assay type: cell-based, human; conditions: Homo sapiens, A-431
SNB-19 = assay: NCI 60 cell line panel; assay type: cell-based; conditions: Homo sapiens, CNS Cancer
SK-MEL-2 = assay: NCI 60 cell line panel; assay type: cell-based; conditions: Homo sapiens
HL-60(TB) = assay: NCI 60 cell line panel; assay type: cell-based; conditions: Homo sapiens, Leukemia
CCRF-CEM = assay: NCI 60 cell line panel; assay type: cell-based; conditions: Homo sapiens, Leukemia
IGROV1 = assay: NCI 60 cell line panel; assay type: cell-based; conditions: Homo sapiens, IGROV-1, Ovarian cancer
SF-539 = assay: NCI 60 cell line panel; assay type: cell-based; conditions: Homo sapiens, CNS Cancer
HCC-2998 = assay: NCI 60 cell line panel; assay type: cell-based; conditions: Homo sapiens, Colon Cancer
SNB-75 = assay: NCI 60 cell line panel; assay type: cell-based; conditions: Homo sapiens, CNS Cancer
NCI-H23 = assay: NCI 60 cell line panel; assay type: cell-based; conditions: Homo sapiens, NSCLC
[2] = tested on: WTβ3 cells (HeLa overexpressing βIII tubulin); assay: Antiproliferative SRB assay; assay type: cell-based; conditions: for IC50: Homo sapiens, HeLa, SRB, 48 h, read-out: IC50 ± SD in WTβ3
CAKI-1 = assay: NCI 60 cell line panel; assay type: cell-based; conditions: Homo sapiens, Renal Cancer
OVCAR-5 = assay: NCI 60 cell line panel; assay type: cell-based; conditions: Homo sapiens, Ovarian cancer
NCI-H522 = assay: NCI 60 cell line panel; assay type: cell-based; conditions: Homo sapiens, NSCLC
TK-10 = assay: NCI 60 cell line panel; assay type: cell-based; conditions: Homo sapiens, Renal Cancer
MDA-435 cells = assay: Antiproliferative SRB assay; assay type: cell-based; conditions: MDA435, 48 h, read-out: IC50 ± SD in MDA-435 cells
LOX IMVI = assay: NCI 60 cell line panel; assay type: cell-based; conditions: Homo sapiens, Melanoma
HCT-116 = assay: NCI 60 cell line panel; assay type: cell-based; conditions: Homo sapiens, Colon Cancer
NCI-H226 = assay: NCI 60 cell line panel; assay type: cell-based; conditions: Homo sapiens, NSCLC
SW-620 = assay: NCI 60 cell line panel; assay type: cell-based; conditions: Homo sapiens, Colon Cancer
EKVX = assay: NCI 60 cell line panel; assay type: cell-based; conditions: Homo sapiens, NSCLC
HCT-15 = assay: NCI 60 cell line panel; assay type: cell-based; conditions: Homo sapiens, Colon Cancer
K-562 = assay: NCI 60 cell line panel; assay type: cell-based; conditions: Homo sapiens, K562, Leukemia

- IC50 (EGFR): 307 ± 42.1 nM
- IC50 (HeLa cells): 302 ± 23.4 nM
- EC50/IC50 ratio ([1]; EC50 MT depolymerization / IC50 MDA-435): 28
- IC50 (VEGFR-2): 5.8 ± 0.73 nM
- fold better than sunitinib, VEGFR-2 (VEGFR-2; vs sunitinib): 3 fold
- IC50 [2]: 243 ± 15.1 nM
SMILES: Cc1nc(N(C)c2ccc3occc3c2)c2cc(C)oc2n1 [Compound 7, N-1-benzofuran-5-yl-N,2,6-trimethylfuro[2,3-d]pyrimidin-4-amine]
- GI50 (UO-31): 278 nM
- GI50 (HOP-62): 75.2 nM
- GI50 (SN 12C): 611 nM
- GI50 (NCI/ADR-RES): 37.6 nM
- GI50 (SF-295): 41.7 nM
- GI50 (MDA-MB-435): 21.1 nM
- GI50 (786-0): 1040 nM
- GI50 (KM12): 58.4 nM
- GI50 (MCF7): 43.8 nM
- GI50 (OVCAR-4): 553 nM
- GI50 (DU-145): 198 nM
- GI50 (SF-268): 527 nM
- GI50 (OVCAR-3): 30 nM
- GI50 (OVCAR-8): 330 nM
- GI50 (ACHN): 265 nM
- GI50 (HT29): 51.9 nM
- GI50 (HOP-92): 226 nM
- effect on cellular microtubules [1]: dose-dependent loss of cellular microtubules
- GI50 (MOLT-4): 211 nM
- GI50 (SK-OV-3): 98 nM
- GI50 (SK-MEL-5): 50.4 nM
- GI50 (HS 578T): 51.7 nM
- GI50 (PC-3): 183 nM
- GI50 (COLO 205): 139 nM
- IC50 (A431 cancer cells): 73.2 ± 10.1 nM
- GI50 (SNB-19): 93.6 nM
- GI50 (SK-MEL-2): 82.4 nM
- GI50 (HL-60(TB)): 41.2 nM
- GI50 (CCRF-CEM): 121 nM
- GI50 (IGROV1): 142 nM
- GI50 (SF-539): 60.9 nM
- GI50 (HCC-2998): 185 nM
- GI50 (SNB-75): 103 nM
- GI50 (NCI-H23): 206 nM
- Rr value (relative resistance) ([2]; WTβ3 vs HeLa): 0.8
- GI50 (CAKI-1): 57.9 nM
- GI50 (OVCAR-5): 531 nM
- GI50 (NCI-H522): 29.9 nM
- GI50 (TK-10): 382 nM
- IC50 (MDA-435 cells): 133 ± 1.7 nM
- GI50 (LOX IMVI): 162 nM
- GI50 (HCT-116): 77.1 nM
- GI50 (NCI-H226): 217 nM
- GI50 (SW-620): 58.8 nM
- GI50 (EKVX): 396 nM
- GI50 (HCT-15): 51.9 nM
- GI50 (K-562): 40.4 nM

- IC50 (EGFR): 3.4 ± 0.8 nM
- IC50 (HeLa cells): 13.5 ± 0.5 nM
- EC50 ([1]; A-10 cells, 18 h, read-out: EC50 for MT depolymerization in A-10 cells): 21 nM
- IC50 (VEGFR-2): 33.2 ± 5 nM
- IC50 [2]: 9.1 ± 1.8 nM
SMILES: COc1ccc2c(c1)CCCN2c1nc(C)nc2oc(C)cc12 [Compound 10, 4-(6-methoxy-3,4-dihydroquinolin-1(2H)-yl)-2,6-dimethylfuro[2,3-d]pyrimidine]
- GI50 (UO-31): < 10 nM
- GI50 (HOP-62): < 10 nM
- GI50 (SN 12C): < 10 nM
- GI50 (NCI/ADR-RES): < 10 nM
- GI50 (SF-295): < 10 nM
- GI50 (MDA-MB-435): < 10 nM
- GI50 (786-0): < 10 nM
- GI50 (KM12): < 10 nM
- GI50 (MCF7): < 10 nM
- GI50 (OVCAR-4): 51 nM
- GI50 (DU-145): < 10 nM
- GI50 (SF-268): 16.8 nM
- GI50 (OVCAR-3): < 10 nM
- GI50 (OVCAR-8): < 10 nM
- GI50 (ACHN): < 10 nM
- GI50 (HT29): < 10 nM
- GI50 (HOP-92): 58.6 nM
- effect on cellular microtubules [1]: dose-dependent loss of cellular microtubules
- GI50 (MOLT-4): 15 nM
- GI50 (SK-OV-3): < 10 nM
- GI50 (SK-MEL-5): < 10 nM
- GI50 (HS 578T): < 10 nM
- GI50 (PC-3): < 10 nM
- GI50 (COLO 205): < 10 nM
- IC50 (A431 cancer cells): 18 ± 2.9 nM
- GI50 (SNB-19): < 10 nM
- GI50 (SK-MEL-2): < 10 nM
- GI50 (HL-60(TB)): < 10 nM
- GI50 (CCRF-CEM): < 10 nM
- GI50 (IGROV1): < 10 nM
- GI50 (SF-539): < 10 nM
- GI50 (HCC-2998): 12 nM
- GI50 (SNB-75): < 10 nM
- GI50 (NCI-H23): < 10 nM
- GI50 (CAKI-1): < 10 nM
- GI50 (OVCAR-5): 43 nM
- GI50 (NCI-H522): < 10 nM
- GI50 (TK-10): < 10 nM
- IC50 (MDA-435 cells): 9.8 ± 0.9 nM
- GI50 (LOX IMVI): < 10 nM
- GI50 (HCT-116): < 10 nM
- GI50 (NCI-H226): 13 nM
- GI50 (SW-620): < 10 nM
- GI50 (EKVX): < 10 nM
- GI50 (HCT-15): < 10 nM
- GI50 (K-562): < 10 nM
